Assay results taken from patent publication US20080188499A1, “Carbo- and Hetero-Cyclic Antibiotics and Use Thereof” (priority 2004, published 2008).
In brackets after ≈: the same amount, converted by molar mass. Where two headings read alike, the source gives them in different places.

Experiments:
[1] = test system: bacterial genus Mycobacterium; assay: MIC determination, Mycobacterium; type: cell-based, Mycobacterium smegmatis
Experimental: (§1) Bacteria. Susceptibility tests were performed against several bacterial species following the recommendations from the National Committee for […] (NCCLS). The MICs were determined by a broth microdilution technique using a final volume of 100 μl of cation-adjusted Mueller Hinton Broth (MHBCA) and a bacterial inoculum of 10^5-10^6 Colony Forming Units (CFU)/ml. The inocula were verified and precisely determined by applying 10 μl drops of 10 fold dilutions onto Triptic Soy Agar plates. The CFU were counted after an incubation of 24 h at 35° C. Any experiment showing an inoculum that was more or less than 10^5-10^6 CFU/ml was rejected. Control antibiotics and test compounds were prepared at a concentration equivalent to 2 fold the highest desired final concentration. Compounds were then diluted directly in the 96-well microtiter plates by serial 2-fold dilutions using a multichannel pipette. Microtiter plates were incubated for 24 h at 35° C. and growth was recorded by using a microtiter plate reader at 650 nm as well as by visual observation. The MIC was defined as the lowest concentration of compound yielding no visible growth. At least two commercial antibiotics (e.g., imipenem and vancomycin) were always included as internal microtiter plate controls in each MIC assay.
(§2) Fastidious bacteria. […]

anaerobic bacteria = assay: MIC determination, anaerobic bacteria; type: cell-based; settings: Bacteroides fragilis
Experimental: as §1, §2

E. faecalis = assay: MIC determination, Enterococci; type: cell-based; settings: Enterococcus faecalis
Experimental: as §1

B. atrophaeus = assay: MIC determination, B. atrophaeus; type: cell-based; settings: Bacillus atrophaeus
Experimental: as §1

[2] = test system: Methicillin-Sensitive S. aureus strains (MSSA); assay: MIC determination, Methicillin-Sensitive S. aureus; type: cell-based; settings: Staphylococcus aureus
Experimental: as §1

Yersinia enterocolytica = assay: MIC determination, Yersinia enterocolytica; type: cell-based
Experimental: as §1

Haemophilus influenzae = assay: MIC determination, Haemophilus influenzae; type: cell-based
Experimental: as §1, §2

B. cereus = assay: MIC determination, B. cereus; type: cell-based; settings: Bacillus cereus
Experimental: as §1

MRSA strains = assay: MIC determination by broth microdilution, antibiotic multi-resistant MRSA strains; type: cell-based, S. aureus
Experimental: as §1

Burkholderia cepacia = assay: MIC determination, Burkholderia cepacia; type: cell-based
Experimental: as §1

B. subtilis = assay: MIC determination, B. subtilis; type: cell-based; settings: Bacillus subtilis
Experimental: as §1

[3] = test system: Branhamella (Moraxella) catarrhalis; assay: MIC determination, Branhamella (Moraxella) catarrhalis; type: cell-based
Experimental: as §1, §2

E. coli ATCC 25922 = assay: MIC determination by broth microdilution, E. coli; type: cell-based, Escherichia coli
Experimental: as §1

DNA metabolism = assay: Mode of action studies: macromolecular biosynthesis assays (incorporation of radiolabeled precursors); type: cell-based; settings: FIG. 1; initial mode of action studies
Experimental: Mode of action studies. Macromolecular biosynthesis assays were performed to identify the microbial cellular processes selectively affected by antibiotic compounds. Exponentially growing bacteria in MHB were washed and diluted in a complete synthetic medium to an optical density of 0.2 (at 600 nm). Cells were then distributed in 96-well plates containing serially diluted antibiotic compounds and radiolabeled precursors. The radiolabeled precursors were D-[^3H]-alanine for peptidoglycan synthesis, [^3H]-thymidine for DNA synthesis, [^3H]-uridine for RNA synthesis and [^3H]-leucine for protein synthesis. Incorporation was allowed for 30 minutes at 35° C. before macromolecules were precipitated for 1 hour on ice in the presence of 10% trichloroacetic acid. The radioactive precipitates were then collected onto GC filters and the radioactivity measured by liquid scintillation counting. Data were expressed as the percentage of radioactivity incorporated compared to control cells grown in the absence of antibiotic compound.

S. aureus strain Newman = assay: In vivo efficacy: S. aureus model of systemic infection in the mouse; settings: for antimicrobial activity in vivo (viable bacteria in the kidneys): S. aureus systemic infection, administrated by gavage 1 hour post-infection, kidneys 5 hours after inoculation
Experimental: In vivo efficacy. The antimicrobial activity of compounds was also evaluated in a S. aureus model of systemic infection in the mouse. To produce the systemic infection, CD-1 female mice (20 g) were injected intra-peritoneally with 10^7 CFU of S. aureus strain Newman suspended in 0.5 ml of endotoxin-free PBS containing 5% mucin (w/v). The compounds were administrated at 1 hour post-infection and kidneys harvested and pooled, for each animal, 5 hours after bacterial inoculation. Tissues were homogenized in PBS and homogenates serially diluted and plated for CFU determination.

[4] = Escherichia coli, ATCC25922, E. coli ATCC 25922, read-out: MIC

## CN1CCN(c2cc3nc(/C=C/c4ccc([N+](=O)[O-])o4)nc(Nc4ccc(O)c(O)c4)c3cc2F)CC1 [Example VIII compound “q”]
[1]
  MIC: 8 µg/mL (≈ 15.8 µM)
Anaerobic bacteria
  MIC: 8 µg/mL (≈ 15.8 µM)
E. faecalis
  MIC: 8 µg/mL (≈ 15.8 µM)
B. atrophaeus
  MIC: 8 µg/mL (≈ 15.8 µM)
[2]
  MIC: 4 to 8 µg/mL (≈ 7.9 to 15.8 µM)
Yersinia enterocolytica
  MIC: 8 µg/mL (≈ 15.8 µM)
Haemophilus influenzae
  MIC: 1 µg/mL (≈ 1.97 µM)
B. cereus
  MIC: 8 µg/mL (≈ 15.8 µM)
MRSA strains; Staphylococcus aureus, MRSA, MRSA strain Sa211c, read-out: MIC
  MIC: 8 µg/mL (≈ 15.8 µM)
MRSA strains; Staphylococcus aureus, MRSA, MRSA strain Sa212c, read-out: MIC
  MIC: 8 µg/mL (≈ 15.8 µM)
MRSA strains; Staphylococcus aureus, MRSA, MRSA strain Sa220c, read-out: MIC
  MIC: 4 µg/mL (≈ 7.9 µM)
MRSA strains; Staphylococcus aureus, MRSA, MRSA strain Sa224c, read-out: MIC
  MIC: 8 µg/mL (≈ 15.8 µM)
MRSA strains; Staphylococcus aureus, MRSA, MRSA strain Sa228c, read-out: MIC
  MIC: 8 µg/mL (≈ 15.8 µM)
MRSA strains; Staphylococcus aureus, MRSA, MRSA strain Sa234c, read-out: MIC
  MIC: 8 µg/mL (≈ 15.8 µM)
MRSA strains; Staphylococcus aureus, MRSA, MRSA strain Sa248c, read-out: MIC
  MIC: 8 µg/mL (≈ 15.8 µM)
MRSA strains; Staphylococcus aureus, MRSA, MRSA strain Sa249c, read-out: MIC
  MIC: 8 µg/mL (≈ 15.8 µM)
MRSA strains; Staphylococcus aureus, MRSA, MRSA strain Sa253c, read-out: MIC
  MIC: 8 µg/mL (≈ 15.8 µM)
MRSA strains; Staphylococcus aureus, MRSA, Methicillin-Resistant S. aureus strains (MRSA), read-out: MIC
  MIC: 4 to 8 µg/mL (≈ 7.9 to 15.8 µM)
Burkholderia cepacia
  MIC: 8 µg/mL (≈ 15.8 µM)
B. subtilis
  MIC: 8 µg/mL (≈ 15.8 µM)
[3]
  MIC: 1 µg/mL (≈ 1.97 µM)

## CN[C@H](CC(C)C)C(=O)N[C@H]1C(=O)N[C@@H](CC(N)=O)C(=O)N[C@H]2C(=O)N[C@H]3C(=O)N[C@H](C(=O)N[C@H](C(=O)O)c4cc(O)cc(O)c4-c4cc3ccc4O)[C@H](O)c3ccc(c(Cl)c3)Oc3cc2cc(c3O[C@@H]2O[C@H](CO)[C@@H](O)[C@H](O)[C@H]2O[C@H]2C[C@](C)(N)[C@H](O)[C@H](C)O2)Oc2ccc(cc2Cl)[C@H]1O [Vancomycin]
E. coli ATCC 25922; Escherichia coli, ATCC25922
  MIC: > 64 µg/mL

## CCn1cc(C(=O)O)c(=O)c2cc(F)c(N3CCNCC3)cc21 [Norfloxacin]
E. coli ATCC 25922; [4]
  MIC: 0.03 to 0.06 µg/mL (≈ 0.0939 to 0.188 µM)

## Gentamicin [reference compound]
MRSA strains; MRSA strain Sa211c
  MIC: 1 µg/mL
MRSA strains; MRSA strain Sa212c
  MIC: 0.25 µg/mL
MRSA strains; MRSA strain Sa220c
  MIC: 0.5 µg/mL
MRSA strains; MRSA strain Sa224c
  MIC: 0.25 µg/mL
MRSA strains; MRSA strain Sa228c
  MIC: 32 µg/mL
MRSA strains; MRSA strain Sa234c
  MIC: 1 µg/mL
E. coli ATCC 25922; E. coli ATCC 25922
  MIC: 0.5 to 2 µg/mL

## O=[N+]([O-])c1ccc(C=Cc2nc(Nc3ccc(O)c(O)c3)c3ccccc3n2)o1 [Example 1, Compound VI, 2-[2-(5-nitro-2-furyl)vinyl]-4-(3,4-dihydroxyanilino)quinazoline]
DNA metabolism
  mode of action (cellular process affected, incorporation of radiolabeled precursors into macromolecules): inhibition of DNA metabolism
S. aureus strain Newman; S. aureus systemic infection model
  toxicity in vivo: relatively low toxicity
S. aureus strain Newman; listed as 2-[2-(5-nitro-2-furyl)vinyl]-4-(3,4-dihydroxyanilino)-quinazoline
  antimicrobial activity in vivo (viable bacteria in the kidneys): active in vivo
S. aureus strain Newman; listed as Example 1 compound VI
  antimicrobial activity in vivo (viable bacteria in the kidneys): reduced the presence of viable bacteria in the kidneys
E. coli ATCC 25922; [4]
  MIC: 0.5 µg/mL (≈ 1.28 µM)
